Assays:
p53 = experiment: Western blot, p53 expression; type: cell-based; settings: breast cancer cells
Protocol: (§1) The MCF-7, SKBR3 and HCT116 total cell lysate were prepared after 24 hours of treatment with compound it at IC50 and DIC50 doses by using 1× laemmli buffer. Total protein concentration was then estimated for each sample and 15-30 μg of protein lysate were loaded equally on 12% SDS-PAGE gel in order to detect various proteins expression levels. In short, the membrane was incubated with different primary antibodies (as mentioned in above section) (1:1000) overnight after blocking with 5% non-fat milk solution for 1 hour. The membrane was then re-probed with respective mouse/rabbit secondary antibodies (1:2000) for 1 h, and later developed by enhanced chemiluminescence (ECL) method by using a Chemidoc MP (BioRad, Germany).

MCF7 cells = experiment: Cell synchronization study, antiproliferative effect on synchronized cells; type: cell-based
Protocol: Cell synchronization and tubulin study: The antiproliferative effect of the compound it was tested on MCF7 cells which were synchronized at specific phases of the cell cycle. […] One way of inhibiting cell proliferation in G2/M phase is by altering equilibrium between polymerization and depolymerization of microtubule proteins which is required for active mitotic cell division.

p-Chk2 = experiment: DNA damage study, p-Chk2 expression (western blot); type: cell-based
Protocol: (§2) However, recruitment of phosphatidylinositol-3-kinase (PI3K) family members to the site of DNA damage is the first step of DNA damage response mechanisms and the phosphorylation of ataxia telangiectasia-mutated (ATM) or ATM-Rad3-related (ATR) kinases often follows. […] Overall, compound it was able to induce DNA damage in an ATR-Chk2 dependent pathway in aggressive breast cancer phenotypes.
as §1

H2AX = experiment: DNA damage study, H2AX phosphorylation (western blot); type: cell-based; settings: SKBr3 cells; IC50 and Double IC50 treatments
Source text: DNA damage studies: One of the main properties of any efficient chemotherapeutic drug is to induce DNA damage in tumor cells either directly or indirectly by generating harmful DNA crosslinks, which can lead to apoptosis and impact the cell by disrupting gene function and/or impairing transcription, DNA replication, and cell proliferation. To gain additional knowledge of compound it's anticancer properties, its mechanism of action to induce DNA damage was studied in breast and colon cancer cells (FIG. 8). One of the critical post-translational modifications of chromatin is phosphorylation of multiple proteins involved in DNA damage pathway and one of the earliest events during DNA double strand break is the phosphorylation of Ser139 on the specialized histone called H2AX, which is then referred to as γ-H2AX.
as §1, with “The membrane was then re-probed with respective mouse/rabbit secondary antibodies (1:2000) for 1 h, and later developed by enhanced chemiluminescence (ECL) method by using a Chemidoc MP (BioRad, Germany).” left out

MCF7 = experiment: Full dose-response, survival of cancer cell line (SRB assay); type: cell-based; settings: Homo sapiens, breast cancer, 48 hours of drug treatment, average of three individual experiments
Source text: (§3) Dulbecco's Modified Eagles Medium (DMEM), RPMI 1640 medium and propidium iodide (PI) were purchased from Sigma Aldrich (Darmstadt, Germany). For western blot, the antibodies; c-Myc, p^53, p^21, Bax, Bid, BclxL, GAPDH, caspase-3, caspase-9, p-ATM, p-ATR, p-Chk1, p-Chk2, p-P^53, and p-H2AX along with respective mouse/rabbit secondary antibodies were purchased from Cell Signaling Technology (Danvers, MA, USA). FITC Annexin V Apoptosis kit was purchased from BD Biosciences (New Jersey, USA). All other chemicals and solvents used were of standard analytical grade. The stock solutions of SIMR compounds were made in 100% DMSO and working solutions for treatments never exceeded >1% DMSO. The cell lines were gifted from Radiobiology and Experimental Radio Oncology lab, University Cancer Center, Hamburg University, Hamburg, Germany. F180 and HCT116 cells were cultured in DMEM media while MCF-7 and SKBR3 cells were cultured in RPMI along with 10% FBS and 5% CO2 in a humidified incubator at 37° C. The cells were grown on polystyrene T-75 (75 cm^2) culture flasks and all the experiments were performed at ˜70% cell confluency.
(§4) SRB assay was performed on DU-143 and MCF-7 cells in order to find out the sub-lethal dosage (IC50) of the synthesized compounds based on reported method with minor modifications. Briefly, 1×10^4 cells were seeded in a 96-well plate overnight and were treated with different concentrations of compounds and incubated further for 48 hours. The wells which were devoid of any treatment served as controls. After the treatment time, the plates were incubated with 50% trichloroacetic acid (TCA) at 4° C. for 1 hour. The cells were then washed, dried and exposed to 1% acetic acid for short period. Two hundred microliters of 10 mMtris base solution was then added with 10 min incubation after drying the plates and the OD was read at 492 nm by using a Multiskan™ GO (Thermo Scientific, USA) microplate Spectrophotometer.

SKBR3 = experiment: as above; type: cell-based; settings: Homo sapiens, SK-BR-3; breast cancer; 48 hours of drug treatment; average of three individual experiments
Source text: as §3, §4

HCT116 = experiment: as above; type: cell-based; settings: Homo sapiens, HCT-116; colon cancer; 48 hours of drug treatment; average of three individual experiments
Source text: as §3, §4

ATR = experiment: DNA damage study, ATR phosphorylation (western blot); type: cell-based; settings: also its downstream target p53
Protocol: as §2, §1

transketolase = biological target: T1, transketolase (Homo sapiens, UniProt P29401); experiment: DARTS proteomic assay; type: binding; settings: dose-dependent manner, FIG. 10
T1 construct: HEK293T cells were lysed using M-PER; endogenous in cells; host or cells: HEK293T lysate
T1 sequence (P29401 whole entry): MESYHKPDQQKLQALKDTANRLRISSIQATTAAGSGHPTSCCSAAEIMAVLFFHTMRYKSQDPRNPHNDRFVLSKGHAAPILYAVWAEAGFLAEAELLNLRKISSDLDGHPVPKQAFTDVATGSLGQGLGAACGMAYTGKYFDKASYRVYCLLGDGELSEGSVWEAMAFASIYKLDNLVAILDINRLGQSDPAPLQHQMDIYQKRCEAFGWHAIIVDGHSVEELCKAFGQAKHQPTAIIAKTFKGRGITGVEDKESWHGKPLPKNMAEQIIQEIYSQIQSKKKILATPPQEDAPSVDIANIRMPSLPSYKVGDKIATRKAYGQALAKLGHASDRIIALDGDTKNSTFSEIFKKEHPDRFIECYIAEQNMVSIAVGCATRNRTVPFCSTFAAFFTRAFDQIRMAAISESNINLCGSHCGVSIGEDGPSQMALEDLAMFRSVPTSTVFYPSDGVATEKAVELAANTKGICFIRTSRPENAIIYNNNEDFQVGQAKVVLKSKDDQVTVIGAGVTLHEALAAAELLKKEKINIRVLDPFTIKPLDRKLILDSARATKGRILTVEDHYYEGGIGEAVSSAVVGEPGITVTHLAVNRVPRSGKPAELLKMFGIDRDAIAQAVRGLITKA
Source text: The unique properties of compound it prompted an in-depth analysis to explore its potential novel targets.
As TKT reaction plays a pivotal role in pentose phosphate pathway, inhibition of TKT will suppress the pentose phosphate pathway and interrupt the synthesis of coenzymes, ATP, CoA, NAD(P)+, FAD, RNA, and DNA in cancer cells. The over-expressed TKT is reported in many cancer cells, tissues, and patients, wherein it regulates proliferation and viability. A strategy of silencing TKT has shown significant effect in reducing tumor burden in gastric cancer cells. Recent studies have shown that targeting TKT has clinical relevance in cancer therapy, as it can counteract the effect of oxidative stress, a critical factor in cancer development.
A DARTS assay was used to assess the binding of compound 1t. HEK293T cells were lysed using M-PER (Thermo Scientific, Inc.) supplemented with protease and phosphatase inhibitors (Lysis buffer). 4.7 mg/mL of protein and TNC buffer (10 mM Tris, 140 mMNaCl, 5 mM CaCl2)) was added, compound it was diluted in DMSO to 3 different concentrations (0.01 μM, 0.1 μM, 1 μM) and incubated for one hour at room temperature. Trypsin (Promega) was added and incubated for 3 hours at 37° C. Thereafter, M-PER lysis buffer was added and the samples were concentrated with Microcon 10K centrifugal filters. […]

Affinity on transketolase (transketolase): strong affinity
SMILES: CC1(C)[C@H]2COc3ccc4ccccc4c3[C@H]2N=C2SC(c3ccccc3)=C(c3ccccc3)N21 [Compound 1t]
Expression of p53 (p53): up-regulation | Sensitivity of G2/M-arrested cells versus asynchronous cells (MCF7 cells; MCF7 cells synchronized at specific phases of the cell cycle): more sensitive | Cells arrested at G2/M phase (MCF7 cells; synchronized MCF7 cells): 18.5% | Checkpoint kinase p-Chk2 expression (p-Chk2): elevated levels | H2AX phosphorylation (H2AX): induced H2AX phosphorylation | IC50 (MCF7): 1910 nM | IC50 (SKBR3): 1900 nM | IC50 (HCT116): 1500 nM | ATR phosphorylation (ATR): phosphorylates ATR

From US12157745B2, “Heterocyclic systems and pharmaceutical compositions thereof” (University of Sharjah, priority 2018, dated 2024)
